From publication PMC12429151 (International Journal of Molecular Sciences, 2025)

Columns and labels:
A549-xenografted tumors = experiment: A549 xenograft nude mouse model; details: cisplatin 5 mg/kg intravenous
Experimental: The body weights of mice and their tumor sizes were measured twice a week. Cisplatin was used as internal control.
The four-week-old female Balb/c nu/nu mice were bought from Orient Bio (Sungnam, Republic of Korea) and maintained for two weeks at 25 ± 2 °C in 50 ± 5% relative humidity with 12 h dark/light cycles. Then, 5 × 10^6 A546 human lung cancer cells mixed with Matrigel were injected subcutaneously into the right dorsal area. […] The body weights and tumor sizes of the mice were measured twice a week for five weeks. […] The tumor volume in each mouse was determined using the following formula: tumor volume (mm^3) = length × width^2 × 0.5.

[1] = test system: human red blood cells (RBCs); experiment: Hemolysis assay; type: cell-based; details: human RBCs in PBS, 37 °C, 1 h, absorbance 405 nm, relative to 1% Triton X-100
Experimental: This study was approved by the Institutional Review Board of Dongguk University (No.: DGU IRB 20200007-01). RBCs were prepared from human blood obtained from the Korean Red Cross by centrifugation at 2000 rpm for 30 min at 10 °C, followed by pellet collection. RBC pellets were washed by resuspending in phosphate-buffered saline (PBS) and centrifugation at 2000 rpm for 30 min at 10 °C thrice. Subsequently, RBCs were resuspended in PBS and 50 μL/well of RBC solution was loaded into a 96-well plate. […] Finally, the absorbance of the supernatant was measured at 405 nm using an Epoch ELISA Reader. […] All the absorbance values were normalized to those of PBS.

cancer and normal cells = experiment: AV/PI flow cytometric analysis, positive control; type: cell-based, human; details: 24 h, AV/PI staining
Experimental: 5 × 10^5/well cells were plated into 6-well plates and incubated at 37 °C with 5% CO2 for 24 h to allow adhesion. […] The conditioned medium was collected into a 15 mL conical tube to retrieve the floating cells, while adherent cells were detached using trypsin. The floating cells in the collected medium were combined with the detached adherent cells and centrifuged for 2 min at 3000 rpm at 4 °C to collect the cells. The cell pellet was resuspended using 1x binding buffer containing AV and PI and incubated for 30 min at 37 °C. The cells were analyzed using a CytoFLEX Flow Cytometer (Beckman Coulter, Brea, CA, USA).

Caco-2 cells = experiment: MTT cell viability assay; details: Caco-2, 24 h treatment, absorbance 530 nm
Experimental: (§1) Then, the cells were further incubated for 4 h in the dark after adding MTT reagent. After incubation, formed formazan crystal was dissolved. The absorbance of the solubilized formazan was measured at 530 nm to determine cell viability of each AMP.
(§2) A549 human lung cancer cells, MDA-MB-231 triple-negative human breast cancer cells, HT-29 human colorectal adenocarcinoma, Panc-1 human pancreatic cancer cell line, and Caco2 human epithelial cell line were purchased from the Korean Cell Line Bank (Seoul, Republic of Korea). HaCaT human keratinocytes were gifted by Professor Su-Kyung Kim (Department of Pharmacology, Keimyung University School of Medicine). The cells were routinely grown in Dulbecco’s Modified Eagle Medium supplemented with 10% fetal bovine serum and 1% antimycotic/antibiotic solution at 37 °C in an atmosphere containing 5% CO2.
(§3) 1 × 10^4 cells were seeded into each well in a 96-well plate and attached for 24 h at 37 °C. […] The medium was removed, and the cells were incubated for 4 h in the dark after adding 50 μL of MTT reagent (Sigma-Aldrich; Merck KGaA, Darmstadt, Germany) in an each well.

HaCaT cells = experiment: MTT cell viability assay; details: 24 h treatment, absorbance 530 nm
Experimental: as §1, §2, §3

Row | Compound | body weight (A549-xenografted tumors) | tumor growth (A549-xenografted tumors; twice in the first week, start at about 400 mm^3) | concentration showing hemolytic activity [1] | cytotoxicity in cancer and normal cells (cancer and normal cells) | concentration showing cytotoxicity (Caco-2 cells) [ng/mL] | concentration showing cytotoxicity (HaCaT cells) [ng/mL]
1 | N.N.[Cl][Pt][Cl] [cisplatin] | significant body weight loss | effectively suppressed |  |  |  | 
2 | CC[C@H](C)[C@H](NC(=O)CN)C(=O)NCC(=O)N[C@@H](C)C(=O)N[C@H](C(=O)N[C@@H](CC(C)C)C(=O)N[C@@H](CCCCN)C(=O)N[C@H](C(=O)N[C@@H](CC(C)C)C(=O)N[C@H](C(=O)N[C@H](C(=O)NCC(=O)N[C@@H](CC(C)C)C(=O)N1CCC[C@H]1C(=O)N[C@@H](C)C(=O)N[C@@H](CC(C)C)C(=O)N[C@H](C(=O)N[C@@H](CO)C(=O)N[C@@H](Cc1c[nH]c2ccccc12)C(=O)N[C@H](C(=O)N[C@@H](CCCCN)C(=O)N[C@@H](CCCNC(=N)N)C(=O)N[C@@H](CCCCN)C(=O)N[C@@H](CCCNC(=N)N)C(=O)N[C@@H](CCC(N)=O)C(=O)N[C@@H](CCC(N)=O)C(N)=O)[C@@H](C)CC)[C@@H](C)CC)[C@@H](C)O)[C@@H](C)O)C(C)C)C(C)C [melittin] |  |  | exceeding 8 μg/mL | high cytotoxicity | ≥ 8000 | ≥ 8000
